Experimental data: PMC11207149, “Novel hematopoietic progenitor kinase 1 inhibitor KHK-6 enhances T-cell activation” (PLOS ONE, 2024)

Target: T1, hematopoietic progenitor kinase 1 (HPK1) (Homo sapiens, UniProt Q92918)
T1 construct: gene MAP4K1
Assay: radiometric [γ-33P]-ATP kinase assay (Eurofins KinaseProfiler), recombinant human HPK1, MBP substrate
Assay type: biochemical

T1 sequence (Q92918 whole entry): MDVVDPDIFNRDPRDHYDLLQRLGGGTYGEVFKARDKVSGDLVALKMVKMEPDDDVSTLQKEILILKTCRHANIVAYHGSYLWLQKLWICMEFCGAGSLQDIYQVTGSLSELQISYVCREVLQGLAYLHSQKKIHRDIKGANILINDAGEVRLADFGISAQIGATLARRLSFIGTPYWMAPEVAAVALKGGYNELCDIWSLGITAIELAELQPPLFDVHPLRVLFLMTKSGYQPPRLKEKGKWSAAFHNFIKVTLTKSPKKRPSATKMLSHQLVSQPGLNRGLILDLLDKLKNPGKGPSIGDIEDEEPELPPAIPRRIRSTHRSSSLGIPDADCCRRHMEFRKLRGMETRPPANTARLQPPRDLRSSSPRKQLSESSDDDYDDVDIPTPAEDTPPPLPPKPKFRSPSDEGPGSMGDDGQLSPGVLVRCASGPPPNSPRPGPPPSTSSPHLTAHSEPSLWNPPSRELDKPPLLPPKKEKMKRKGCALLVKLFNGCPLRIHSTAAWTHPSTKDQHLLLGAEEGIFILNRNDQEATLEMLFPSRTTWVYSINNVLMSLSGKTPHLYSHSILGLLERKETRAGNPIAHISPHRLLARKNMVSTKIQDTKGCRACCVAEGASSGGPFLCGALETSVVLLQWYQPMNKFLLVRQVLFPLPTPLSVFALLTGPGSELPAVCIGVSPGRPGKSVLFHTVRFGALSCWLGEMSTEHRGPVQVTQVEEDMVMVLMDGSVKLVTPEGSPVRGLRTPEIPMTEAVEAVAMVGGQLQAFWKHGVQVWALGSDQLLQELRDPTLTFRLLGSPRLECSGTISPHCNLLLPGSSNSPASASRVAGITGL

CC(C)S(=O)(=O)c1ccccc1Nc1nc(Nc2ccc3c(c2)C(C)(C)OC3=O)ncc1Cl [KHK-6]
IC50: 20 nM
